Test [1] can be described thus: OVCAR8 cell viability loss – plate reader, dry powder samples, PAX8 project, dose response (AID 743197). The note with it: OVCAR-8. Format: functional, cell-based.
The nature of test [2]: COV362 cell viability loss – plate reader, dry powder, SA12, cytotoxicity control for PAX8 inhibitor project, dose response (AID 743144). Format: functional, cell-based.
The nature of test [3]: toxicity toward immortalized ovarian surface epithelium – cell-based, plate reader, dry powder samples, cytotoxicity control for PAX8 inhibitor project, dose response (AID 743045). Format: functional.
Test [4] in a line: COV434 cell viability loss – plate reader, dry powder, SA7, cytotoxicity control for PAX8 inhibitor project, dose response (AID 743145). Type of test: functional, cell-based.
Test [5] is described as follows: OV-90 cell viability loss – plate reader, dry powder, SA8, PAX8 inhibitor project, dose response (AID 743149). Format: functional, cell-based.
A short description of test [6]: OVCAR-3 cell viability loss – plate reader, dry powder samples, PAX8 inhibitor project, dose response (AID 743044). Type of test: functional, cell-based.
Test [7] in a line: PAX8-dependent cell viability loss – plate reader, dry powder, dose response (AID 743049). Format: functional, cell-based.
The nature of test [8]: OVCAR4 cell viability loss – plate reader, dry powder, SA11, cytotoxicity control for PAX8 inhibitor project, dose response (AID 743150). Type of test: functional, cell-based. The conditions noted are these: OVCAR-4.
Test [9] can be described thus: IGROV1 cell killing – plate reader, dry powder samples, PAX8 inhibitor project, dose response (AID 743043). Type of test: functional, cell-based. The note with it: IGROV-1.
Test [10] in a line: PAX5 cellular inhibition readout – cell-based, plate reader, dry powder samples, selectivity assay for PAX8 inhibitor project, dose response (AID 743047).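 Note: HEK293 cells carrying a Pax5 driven CD19 promoter luciferase reporter; potency of inhibitors that lower reporter luminescence.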 Type of test: functional.
The nature of test [11]: inhibitors acting on PAX2 in cells – cell-based, plate reader, dry powder samples, selectivity assay for PAX8 inhibitor project, dose response (AID 743048).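 Note: HEK293 cells carrying a WT1 promoter luciferase reporter driven by expressed Pax2; potency is for inhibition of Pax2 driven reporter signal.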 Format: functional.
Test [12] is described as follows: A2780 cell killing – plate reader, dry powder samples, cytotoxicity control, dose response (AID 743046). Type of test: functional, cell-based.
For a further test, the target named is Paired box protein Pax-8 (Homo sapiens, UniProt Q06710). The experiment in a line: PAX8 transcriptional activity inhibition in RMG-I – RMG-I cells, luciferase, cherry-pick, dose response (AID 687027).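 Note: luciferase reporter driven by Pax8 target thyroperoxidase promoter measured by SteadyGlo luminescence.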 Type of test: functional, cell-based.
Chain of Paired box protein Pax-8 (Q06710 whole entry): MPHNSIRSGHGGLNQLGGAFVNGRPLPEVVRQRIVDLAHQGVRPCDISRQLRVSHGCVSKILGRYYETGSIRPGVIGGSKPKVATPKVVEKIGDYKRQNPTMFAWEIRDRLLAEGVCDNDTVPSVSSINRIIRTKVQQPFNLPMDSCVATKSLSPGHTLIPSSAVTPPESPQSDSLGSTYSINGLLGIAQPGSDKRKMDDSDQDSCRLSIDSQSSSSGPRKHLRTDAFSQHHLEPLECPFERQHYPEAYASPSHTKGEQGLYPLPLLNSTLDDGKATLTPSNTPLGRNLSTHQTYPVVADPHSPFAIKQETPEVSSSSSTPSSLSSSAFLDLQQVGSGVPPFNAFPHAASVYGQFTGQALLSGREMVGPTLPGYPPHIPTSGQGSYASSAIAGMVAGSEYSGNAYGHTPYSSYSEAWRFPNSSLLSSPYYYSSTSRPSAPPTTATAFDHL
Test [13] can be described thus: A Cell-Based Confirmatory Screen for Compounds that Inhibit VEEV, TC-83 (5). Format: functional.
The nature of test [14]: A Cell-Based Confirmatory Screen for Compounds that Inhibit VEEV, TC-83 (3). Format: functional.
Test [15] is described as follows: A Cell-Based Confirmatory Screen for Compounds that Inhibit VEEV TC-83 (4). Format: functional.
Test [16] concerns the target Muscarinic acetylcholine receptor M5 (Homo sapiens, UniProt P08912). Kind of test: inhibition of ACh-evoked human M5 signalling – cell-based, CHO-K1 hM5, Fluo-4 calcium flux, ACh EC80, dose response (AID 743110). Format: functional. Background: A change in cytosolic calcium serves as a functional read-out for many receptors and channels.
The target in test [17] is Muscarinic acetylcholine receptor M5 (Rattus norvegicus, UniProt P08911). Kind of test: Discovery of Novel Antagonists of Muscarinic Receptor M5: Counterscreen against RAT M5. Type of test: functional.
Chain of Muscarinic acetylcholine receptor M5 (Rattus norvegicus, UniProt P08911) (P08911 whole entry): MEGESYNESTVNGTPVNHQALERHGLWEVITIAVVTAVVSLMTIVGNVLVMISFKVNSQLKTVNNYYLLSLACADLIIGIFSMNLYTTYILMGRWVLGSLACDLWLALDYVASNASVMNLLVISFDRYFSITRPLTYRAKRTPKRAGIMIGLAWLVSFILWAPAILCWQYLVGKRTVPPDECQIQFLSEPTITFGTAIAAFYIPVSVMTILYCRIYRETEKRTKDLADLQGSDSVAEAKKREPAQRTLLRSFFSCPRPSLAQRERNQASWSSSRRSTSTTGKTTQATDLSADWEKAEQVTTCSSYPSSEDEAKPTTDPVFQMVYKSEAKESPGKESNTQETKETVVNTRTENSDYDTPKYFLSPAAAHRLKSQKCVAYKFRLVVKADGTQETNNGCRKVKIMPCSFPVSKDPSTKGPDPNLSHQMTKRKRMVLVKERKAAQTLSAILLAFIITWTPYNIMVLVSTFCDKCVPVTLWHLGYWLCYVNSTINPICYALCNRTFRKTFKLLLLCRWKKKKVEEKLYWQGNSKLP
The nature of test [18]: growth inhibition of yeast DHODH-expressing 3D7 parasites – SYBR Green, dry powder samples, dose response (AID 1159570).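 Note: parasite growth measured after 72 hours of compound exposure.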 Type of test: functional, cell-based.
Test [19] can be described thus: growth inhibition of PfATP4-mutant resistant parasites – NITD609-resistant line, SYBR Green, dry powder, dose response (AID 1159571).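 Note: parasites synchronized at ring stage by sorbitol before testing.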 Type of test: functional, cell-based.
The nature of test [20]: Dd2 malaria parasite growth inhibition potency – SYBR Green, dry powder samples, dose response (AID 1159566).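 Note: potency for growth inhibition with lower SYBR green DNA signal.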 Type of test: functional, cell-based.
Test [21] is described as follows: P. falciparum Dd2 growth inhibitors, dose response, SYBR Green, cherry-picked samples (AID 1159567). Format: functional, cell-based.
Test [22] can be described thus: Plasmodium falciparum Dd2 Sybr green parasite growth Measured in Cell-Based and Microorganism Combination System Using Plate Reader - 2153-01_Inhibitor_Dose_DryPowder_Activity_Set3. Format: functional.
Test [23] is described as follows: CellTiter-Glo luminescence survival assay, SW480 colon tumor line, concentration-response curve, half-maximal inhibitory concentration (AID 1117338). Format: functional. (Cellular ATP, detected with luciferase, serves as a proxy for viable cell number.)
Test [24] is described as follows: cytotoxicity toward HCT116 cells – cell-based, CellTiter-Glo luminescence, IC50, dose response (AID 1117332). Format: functional. The note with it: HCT-116.
Test [25] in a line: Reduced DLD-1 viability, concentration-response, CellTiter-Glo luminescence (AID 1117352). Type of test: functional.
Test [26] can be described thus: SNU-C1 cell viability reduction, dose response, CellTiter-Glo luminescence (AID 1117323). Type of test: functional, cell-based.
Test [27] is described as follows: cytotoxicity toward Colo320 cells – cell-based, CellTiter-Glo luminescence, IC50, dose response (AID 1117334). Type of test: functional. The note with it: COLO 320.
Test [28] in a line: HCT116 cell viability decrease, GSK3B pretreatment – CellTiter-Glo, IC50, dose response (AID 1117339). Type of test: functional. The note with it: HCT-116.
A short description of test [29]: RKO cell viability reduction, dose response, CellTiter-Glo luminescence (AID 1117322). Format: functional.
Test [30] addresses G-protein coupled receptor 183 (Homo sapiens, UniProt P32249). Kind of test: SAR confirmation of small molecule antagonists of the EBI2 receptor via a luminescent beta-arrestin assa. Type of test: functional.
A short description of test [31]: antifungal activity, alamar blue, dry powder, counter-screen for C. neoformans cell wall antifungals, dose response (AID 743128). Format: functional, organism-based. Background: The colour change of resazurin is a common sign of viable cells or microbes.
The next test is described as follows: cells. The conditions noted are these: HEK293.
Test [32] in a line: toxicity to HepG2 liver cells – cell-based, plate reader, dry powder, set 6, cytotoxicity control, dose response (AID 743311). Format: functional.
In test [33] the target is Metabotropic glutamate receptor 7 (Homo sapiens, UniProt Q14831). Kind of test: potentiation of glutamate EC20 at mGlu7 – cell-based, calcium mobilization, Galpha15, dose response (AID 743384). Format: functional.
Chain of Metabotropic glutamate receptor 7 (Q14831 whole entry): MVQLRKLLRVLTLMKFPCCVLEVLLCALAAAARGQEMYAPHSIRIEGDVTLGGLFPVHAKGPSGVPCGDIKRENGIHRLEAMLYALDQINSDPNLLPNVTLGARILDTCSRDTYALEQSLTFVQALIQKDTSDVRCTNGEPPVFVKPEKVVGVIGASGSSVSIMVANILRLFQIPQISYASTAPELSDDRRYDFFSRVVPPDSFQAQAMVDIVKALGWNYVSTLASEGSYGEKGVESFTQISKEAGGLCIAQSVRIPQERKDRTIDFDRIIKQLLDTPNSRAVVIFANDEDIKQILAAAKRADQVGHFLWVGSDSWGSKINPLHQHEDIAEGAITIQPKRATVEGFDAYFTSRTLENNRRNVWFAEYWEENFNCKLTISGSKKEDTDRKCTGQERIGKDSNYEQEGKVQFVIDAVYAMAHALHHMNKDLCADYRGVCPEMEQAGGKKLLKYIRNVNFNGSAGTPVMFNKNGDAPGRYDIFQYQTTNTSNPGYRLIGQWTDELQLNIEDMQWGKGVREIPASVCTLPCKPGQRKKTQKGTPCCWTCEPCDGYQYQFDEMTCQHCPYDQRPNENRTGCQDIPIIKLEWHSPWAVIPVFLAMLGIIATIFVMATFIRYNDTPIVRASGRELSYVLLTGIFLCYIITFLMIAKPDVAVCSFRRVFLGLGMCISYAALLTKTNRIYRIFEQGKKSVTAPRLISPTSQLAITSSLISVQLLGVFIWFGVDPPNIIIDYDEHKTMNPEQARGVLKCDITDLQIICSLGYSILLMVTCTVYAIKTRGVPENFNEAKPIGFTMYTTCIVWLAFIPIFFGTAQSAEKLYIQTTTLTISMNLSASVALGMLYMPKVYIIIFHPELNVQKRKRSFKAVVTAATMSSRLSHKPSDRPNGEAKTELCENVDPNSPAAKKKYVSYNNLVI
Test [34] in a line: loss of HEK293T viability via ATP – cell-based, plate reader, dry powder, set 10, cytotoxicity control, dose response (AID 743315). Type of test: functional. The note with it: HEK293.
Test [35] can be described thus: toxicity to A549 lung cells – cell-based, plate reader, dry powder, set 6, cytotoxicity control, dose response (AID 743312). Format: functional.

In general, AC50 refers to the midpoint of the concentration-response curve, whichever way the signal moves. Broadly, the IC50 is the concentration needed to halve the response being measured. One may read the EC50 as the concentration at which the effect is half-maximal.

Calls of active or inactive are those of the source.

Chain of Muscarinic acetylcholine receptor M5 (Homo sapiens, UniProt P08912) (P08912 whole entry): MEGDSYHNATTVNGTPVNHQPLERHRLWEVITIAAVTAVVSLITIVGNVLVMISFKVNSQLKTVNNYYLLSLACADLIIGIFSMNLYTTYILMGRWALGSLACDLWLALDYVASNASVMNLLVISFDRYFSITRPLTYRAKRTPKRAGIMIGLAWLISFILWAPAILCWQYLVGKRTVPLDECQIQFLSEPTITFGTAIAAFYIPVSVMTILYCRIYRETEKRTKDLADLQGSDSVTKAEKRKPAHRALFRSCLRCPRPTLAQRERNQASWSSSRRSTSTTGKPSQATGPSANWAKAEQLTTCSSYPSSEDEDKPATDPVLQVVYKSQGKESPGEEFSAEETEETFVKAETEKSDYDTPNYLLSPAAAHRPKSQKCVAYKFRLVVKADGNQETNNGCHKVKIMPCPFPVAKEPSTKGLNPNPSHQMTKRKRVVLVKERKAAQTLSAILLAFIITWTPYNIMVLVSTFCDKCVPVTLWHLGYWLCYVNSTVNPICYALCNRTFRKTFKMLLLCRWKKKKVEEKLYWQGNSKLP
Chain of G-protein coupled receptor 183 (P32249 whole entry): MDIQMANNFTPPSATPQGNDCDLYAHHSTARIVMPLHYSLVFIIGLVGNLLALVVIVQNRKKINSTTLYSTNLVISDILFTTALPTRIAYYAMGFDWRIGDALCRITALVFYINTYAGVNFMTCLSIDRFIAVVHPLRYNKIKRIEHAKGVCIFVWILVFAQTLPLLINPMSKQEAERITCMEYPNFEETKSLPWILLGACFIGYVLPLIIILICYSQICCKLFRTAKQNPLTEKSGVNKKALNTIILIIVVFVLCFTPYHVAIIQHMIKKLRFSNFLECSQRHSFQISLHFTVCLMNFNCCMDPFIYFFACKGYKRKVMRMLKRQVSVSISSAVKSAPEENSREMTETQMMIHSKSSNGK

With `CN(C[C@H]1N[C@@H](CO)[C@@H]1c1ccc(-c2cccnc2)cc1)C(=O)c1ccccc1`, the half-maximal activity concentration (AC50) in test [1] is 8.64 µM (active); in test [2] it was 7.42 µM (active); in [3], 23.4 µM (active); in [4], 11.3 µM (active); in test [5], 14.5 µM (active); in test [6], 7.22 µM (active). The concentration at half-maximal activity (AC50) in [7] is 9.82 µM (active); in test [8], 5.14 µM (active); in [9] it was 5.83 µM (active); in test [10], 15.8 µM (active); in [11] it was > 32 µM (inactive); in test [12], 13.8 µM (active). In addition, the AC50 on Paired box protein Pax-8 was 2.89 µM (active).

For `CN1CCN(Cc2nc3ccc([N+](=O)[O-])cc3c(=O)n2-c2ccccc2F)CC1`, the IC50 in test [13] was 0.65 µM (active); in [14], < 0.72 µM (active); in [15], 0.74 µM (active).

Take `CC(=O)c1cccc(NCc2cc(C(=O)N(C)C(C)c3ccccn3)no2)c1` (stereo not drawn): the IC50 in [16] is 6.77 µM (active); in [17] it was 7.11 µM (active).

For `CO[C@@H]1CN(C)C(=O)c2ccc(NC(=O)Nc3ccccc3F)cc2OC[C@@H](C)N(CCC(F)(F)F)C[C@H]1C`, the half-maximal activity concentration (AC50) in test [18] is 6.04 µM (active); in test [19], 1.92 µM (active); in test [20] it was 0.51 µM (active); in [21], 1.57 µM (active); in test [22] it was 0.567 µM (active).

For `C[S+](CC[C@H](N)C(=O)O)C[C@H]1O[C@@H](n2cnc3c(N)ncnc32)[C@H](O)[C@H]1O` (stereo partly drawn), the IC50 in test [23], in [24], in test [25], in [26], in test [27] and in [28] was > 20 µM (inactive) each time. Besides, the IC50 in test [29] is > 20 µM (inactive).

In the case of `COc1cc(CN2CCN(C(=O)/C=C/c3ccc(Br)cc3)CC2)cc(OC)c1`, the IC50 in test [30] is 0.00364 µM (active).

For the molecule `Cc1ccc(OCCn2cnc3ccccc32)cc1`, the concentration at half-maximal activity (AC50) in test [31] is 38.9 µM (active).

As for `c1ccc(COc2ccc(OCCn3cnc4ccccc43)cc2)cc1`, the AC50 (in the test “cells”; in [32]) was > 52 µM (inactive) each time.

Regarding `COc1ccc(CSCC(=O)c2cc(C)n(-c3ccc(OC(F)F)cc3)c2C)cc1`, the EC50 in test [33] is 10 µM (active).

`CC(C)(C)c1ccc(OCCn2cnc3ccccc32)cc1`: the AC50 in [34] was 15.9 µM (active); in the test “cells”, 20.9 µM (active); in test [35], 23.9 µM (active).
